Data reported in patent US8835484B2, “Naphthocyanines for use as contrast agents” (Alamedics GmbH & Co. KG, priority 2010, dated 2014).

Experiments:
[1] = Solid cyanine dye stability comparison; assay type: physicochemical; settings: storage
Description: Decomposition of the solid dye results in a red coloration of the solid and the solution. Carboxylic acid esters, especially methyl ester, are particularly sensitive in addition to the bromides.

[2] = Fluorescence quantum yield; assay type: physicochemical; settings: CHCl3; Reference: S-13 with Φ=1.00
Description: IR spectra: Perkin Elmer Spectrum BX II, using a diamond anvil cell; UV/Vis spectra: Varian Cary 5000 and Bruins Omega 20; fluorescence spectra: Varian Eclispe; NMR spectroscopy: Varian Vnmrs 600 (600 MHz, 400 MHz, 200 MHz); mass spectrometry: Thermo Finnigan LQT FT.

lens capsule = experiment: Dye tests on porcine eyes (lens capsule staining); settings: incubated, rinsed after one minute
Method: For the dye test, in each case 5 mg dye was dissolved in 500 μL ethanol and diluted to 2 mL with BSS Plus solution as the stock solution, and then correspondingly further diluted. As an alternative, one can prepare stock solutions of the dye by dissolving, for example, 5 mg dye in 1 mL distilled water, adding 7 mL BSS solution and then combining with 1 mL NaCl solution having an osmolality of 620 (approximately 2%) in order to restore the original osmolality of the BSS solution (308). This stock solution can be correspondingly further diluted with BSS solution as required. Enucleated porcine eyes were used having a post mortem time period of a few hours. To dye the lens capsule, the cornea was first removed. Thereafter, the iris was resected and the capsular support was severed. The lens with intact lens capsule was removed and placed in a bowl filled with BSS. The lenses were thereafter incubated with the dyes according to the invention at various concentrations and then rinsed after one minute. The dye pattern was photographically documented, whereby the coloration was assessed without additional illumination, and fluorescence was assessed with illumination (Xenon lamp, halogen lamp with typical endoillumination source and fiber optics). The lens capsule is a very good model for dyeing due to the fact that it is a basal membrane, as is the ILM of the retina. Both structures are important target structures in eye surgery.

[3] = Solid cyanine dye stability comparison; assay type: physicochemical; settings: after work-up, forming a yellow color
retina = settings: cited from earlier work
[4] = system: internal limiting membrane (ILM); settings: literature experiments; cited from earlier work

SMILES | melting point | Stability [1] | Fluorescence quantum yield [2] | coloration of lens capsule (lens capsule; dye concentration 0.5%) | coloration of lens capsule (lens capsule; dye concentration 1.0) | decomposition of the dye after preparation [3] | toxic effect on the retina (retina) | staining of the ILM [4]
CCOC(=O)CCCCN1/C(=C\C=C\C2=[N+](CCCCC(=O)OCC)c3ccc4c(S(=O)(=O)O)cccc4c3C2(C)C)C(C)(C)c2c1ccc1c(S(=O)(=O)O)cccc21.[Br-] [Dye 6f, 3,3′-Di-(4-ethoxycarbonylbutyl)-1,1,1′,1′-tetramethyl-1H-disulfobenzo[e]indocarbocyanine bromide] | > 150 °C (dec.) | Decomposition after 2 months | 0.11 | decomposed | decomposed | decomposes as soon as after one day | – | –
CC1(C)C(/C=C/C=C/C=C/C=C2\N(CCCCS(=O)(=O)O)c3ccc4ccccc4c3C2(C)C)=[N+](CCCCS(=O)(=O)[O-])c2ccc3ccccc3c21 [ICG, indocyanine green] | – | – | – | – | – | – | toxic effect on the retina which is difficult to control | Selective staining
